Test results as given in PubChem BioAssay AID256 (DTP/NCI, 2004).
Values joined by “and” are separate entries in the source; they are usually repeats but may differ in a detail not shown here. Equal entries are not always repeated. Toxic doses and inconclusive results are not listed. Rule for the calls: active = survival T/C of 150% or more; inactive = T/C below 125% in these data.

Tested on: CD2F1 mice, L1210 leukemia ip, survival T/C
Assay: NCI In Vivo Anticancer Drug Screen. Data for tumor model L1210 Leukemia (intraperitoneal) in CD2F1 (CDF1) mice
Conditions: endpoint: mean survival time, higher = longer survival
In short: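 Each value reflects a quotient of treated over vehicle control outcomes in mice with a transplanted tumor.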

[1] = dose: 100.0 mg/kg/injection, schedule: Q01DX009 (ip), vehicle: saline with Tween-80
[2] = dose: 200.0 mg/kg/injection, schedule: Q01DX009 (ip), vehicle: saline with Tween-80
[3] = dose: 100.0 mg/kg/injection, schedule: Q04DX003 (ip), vehicle: saline with Tween-80
[4] = dose: 200.0 mg/kg/injection, schedule: Q04DX003 (ip), vehicle: saline with Tween-80
[5] = dose: 400.0 mg/kg/injection, schedule: Q04DX003 (ip), vehicle: saline with Tween-80
[6] = dose: 100.0 mg/kg/injection, schedule: Q01DX001 (ip), vehicle: saline with Tween-80
[7] = dose: 200.0 mg/kg/injection, schedule: Q01DX001 (ip), vehicle: saline with Tween-80
[8] = dose: 400.0 mg/kg/injection, schedule: Q01DX001 (ip), vehicle: saline with Tween-80
[9] = dose: 100.0 mg/kg/injection, schedule: Q01DX001 (ip), vehicle: saline
[10] = dose: 200.0 mg/kg/injection, schedule: Q01DX001 (ip), vehicle: saline
[11] = dose: 400.0 mg/kg/injection, schedule: Q01DX001 (ip), vehicle: saline
[12] = dose: 100.0 mg/kg/injection, schedule: Q04DX003 (ip), vehicle: saline
[13] = dose: 200.0 mg/kg/injection, schedule: Q04DX003 (ip), vehicle: saline

Measured: T/C

N#C/C(=C/Cc1ccccc1)Nc1ccccc1
inactive: [1] 97 % of control | dose: 100.0 mg/kg/injection, schedule: Q04DX003 (ip), vehicle: saline sonified 97 % of control | [2] 101 % of control | dose: 200.0 mg/kg/injection, schedule: Q04DX003 (ip), vehicle: saline sonified 97 % of control | dose: 400.0 mg/kg/injection, schedule: Q01DX009 (ip), vehicle: saline with Tween-80 87 % of control | dose: 400.0 mg/kg/injection, schedule: Q04DX003 (ip), vehicle: saline sonified 96 % of control

CC12CCC(O)CC1=CCC1C2CCC2(C)C1CCC21CCNP(=O)(N(CCCl)CCCl)O1 (configuration not stated)
inactive: dose: 62.5 mg/kg/injection, schedule: Q01DX001 (ip), vehicle: saline 98 % of control | dose: 125.0 mg/kg/injection, schedule: Q01DX001 (ip), vehicle: saline 101 % of control | dose: 250.0 mg/kg/injection, schedule: Q01DX001 (ip), vehicle: saline 93 % of control | dose: 500.0 mg/kg/injection, schedule: Q01DX001 (ip), vehicle: saline 97 % of control

C=C(CN(C)C)c1ccccn1
inactive: dose: 75.0 mg/kg/injection, schedule: Q01DX001 (ip), vehicle: other 100 % of control

O=C(/C=C/c1ccccc1O)/C=C/c1ccccc1O
inactive: dose: 25.0 mg/kg/injection, schedule: Q01DX009 (ip), vehicle: saline with Tween-80 107 % of control | dose: 25.0 mg/kg/injection, schedule: Q04DX003 (ip), vehicle: saline with Tween-80 111 % of control | dose: 50.0 mg/kg/injection, schedule: Q01DX009 (ip), vehicle: saline with Tween-80 94 % of control | dose: 50.0 mg/kg/injection, schedule: Q04DX003 (ip), vehicle: saline with Tween-80 101 % of control | [3] 105 % of control

COc1cc2c(c(OC)c1OC)-c1ccc(SC)c(=O)cc1[C@@H](NC(C)=O)CC2
inactive: dose: 0.2 mg/kg/injection, schedule: Q01DX009 (ip), vehicle: Klucel (hydroxypropylcellulose) (HPC) 86 % of control | dose: 0.75 mg/kg/injection, schedule: Q04DX002 (ip), vehicle: Klucel (hydroxypropylcellulose) (HPC) 121 % of control | dose: 3.0 mg/kg/injection, schedule: Q04DX002 (ip), vehicle: Klucel (hydroxypropylcellulose) (HPC) 118 % of control and 95 % of control | dose: 6.0 mg/kg/injection, schedule: Q04DX002 (ip), vehicle: Klucel (hydroxypropylcellulose) (HPC) 97 % of control

c1ccc(Sc2ccc3ccccc3c2)cc1
inactive: [3] 98 % of control | [4] 101 % of control | [5] 91 % of control

COc1ccc(C(=O)OCC(=O)O)cc1
inactive: dose: 50.0 mg/kg/injection, schedule: Q01DX001 (ip), vehicle: saline with Tween-80 102 % of control | [6] 98 % of control | [7] 102 % of control

CCC1(C#CCN2C(=O)c3ccccc3C2=O)C=CC2(CC1)OCCO2 (configuration not stated)
inactive: [6] 101 % of control | [7] 93 % of control | [8] 91 % of control

COc1ccc(/C=C2/N=C(C)OC2=O)cc1OC(C)=O
inactive: [9] 92 % of control | [10] 93 % of control | [11] 96 % of control

CCOC(=O)C=C1CCN(C)CC1
inactive: dose: 50.0 mg/kg/injection, schedule: Q04DX003 (ip), vehicle: saline 94 % of control | [12] 97 % of control | [13] 97 % of control

CC(=O)OCC1OC(n2cnc3[nH]c(=S)[nH]c(=S)c32)C(OC(C)=O)C1OC(C)=O (configuration not stated)
inactive: [9] 103 % of control | [10] 96 % of control | [11] 97 % of control

ON(C(=Nc1ccc(Cl)cc1)c1ccccc1)c1ccccc1
inactive: [9] 105 % of control | [12] 100 % of control | [10] 97 % of control | [13] 102 % of control | [11] 100 % of control | dose: 400.0 mg/kg/injection, schedule: Q04DX003 (ip), vehicle: saline 100 % of control

Cc1cc2c(c3oc(C4(C)OC4C4OC4C)cc(=O)c13)C(=O)c1c(O)c(C3CC(C)(N(C)C)C(O)C(C)O3)cc(C3CC(N(C)C)C(O)C(C)O3)c1C2=O (configuration not stated)
inactive: dose: 0.07 mg/kg/injection, schedule: Q01DX009 (oral), vehicle: saline 87 % of control | dose: 0.13 mg/kg/injection, schedule: Q01DX009 (oral), vehicle: saline 93 % of control | dose: 0.25 mg/kg/injection, schedule: Q01DX001 (oral), vehicle: saline 98 % of control | dose: 0.25 mg/kg/injection, schedule: Q01DX009 (oral), vehicle: saline 92 % of control | dose: 0.5 mg/kg/injection, schedule: Q01DX001 (oral), vehicle: saline 97 % of control | dose: 0.5 mg/kg/injection, schedule: Q01DX009 (oral), vehicle: saline 100 % of control | dose: 1.0 mg/kg/injection, schedule: Q01DX001 (oral), vehicle: saline 96 % of control | dose: 2.0 mg/kg/injection, schedule: Q01DX001 (oral), vehicle: saline 97 % of control | dose: 1.0 micrograms/kg/injection, schedule: Q03HX024 (ip), vehicle: saline 106 % of control | dose: 1.3 micrograms/kg/injection, schedule: Q01DX009 (ip), vehicle: water 101 % of control | dose: 2.0 micrograms/kg/injection, schedule: Q03HX024 (ip), vehicle: saline 111 % of control | dose: 2.5 micrograms/kg/injection, schedule: Q01DX009 (ip), vehicle: water 112 % of control | dose: 4.0 micrograms/kg/injection, schedule: Q01DX009 (ip), vehicle: saline 102 % of control | dose: 4.0 micrograms/kg/injection, schedule: Q03HX024 (ip), vehicle: saline 111 % of control | dose: 5.0 micrograms/kg/injection, schedule: Q01DX009 (ip), vehicle: water 108 % of control | dose: 8.0 micrograms/kg/injection, schedule: Q01DX009 (ip), vehicle: saline 109 % of control | dose: 8.0 micrograms/kg/injection, schedule: Q03HX008 (ip), vehicle: saline 103 % of control | dose: 8.0 micrograms/kg/injection, schedule: Q03HX024 (ip), vehicle: saline 112 % of control | dose: 10.0 micrograms/kg/injection, schedule: Q01DX009 (ip), vehicle: water 112 % of control | dose: 15.0 micrograms/kg/injection, schedule: Q01DX009 (ip), vehicle: saline 109 % of control | dose: 15.0 micrograms/kg/injection, schedule: Q03HX008 (ip), vehicle: saline 112 % of control | dose: 15.0 micrograms/kg/injection, schedule: Q08DX002 (ip), vehicle: saline 98 % of control | dose: 20.0 micrograms/kg/injection, schedule: Q01DX009 (ip), vehicle: water 106 % of control | dose: 30.0 micrograms/kg/injection, schedule: Q01DX009 (ip), vehicle: saline 114 % of control | dose: 30.0 micrograms/kg/injection, schedule: Q03HX008 (ip), vehicle: saline 113 % of control | dose: 30.0 micrograms/kg/injection, schedule: Q08DX002 (ip), vehicle: saline 98 % of control | dose: 40.0 micrograms/kg/injection, schedule: Q01DX009 (ip), vehicle: water 91 % of control | dose: 60.0 micrograms/kg/injection, schedule: Q03HX008 (ip), vehicle: saline 118 % of control | dose: 60.0 micrograms/kg/injection, schedule: Q08DX002 (ip), vehicle: saline 106 % of control | dose: 120.0 micrograms/kg/injection, schedule: Q08DX002 (ip), vehicle: saline 121 % of control

On1ccnc2nncc1-2
inactive: dose: 11.3 mg/kg/injection, schedule: Q01DX005 (ip), vehicle: other 104 % of control | dose: 22.5 mg/kg/injection, schedule: Q01DX005 (ip), vehicle: other 104 % of control | dose: 45.0 mg/kg/injection, schedule: Q01DX005 (ip), vehicle: other 101 % of control | dose: 90.0 mg/kg/injection, schedule: Q01DX005 (ip), vehicle: other 97 % of control | dose: 180.0 mg/kg/injection, schedule: Q01DX005 (ip), vehicle: other 93 % of control | dose: 200.0 mg/kg/injection, schedule: Q01DX005 (ip), vehicle: other 102 % of control | dose: 400.0 mg/kg/injection, schedule: Q01DX005 (ip), vehicle: other 106 % of control

COC(=O)C1c2cc3c(c(O)c2CCC1(C)O)C(=O)c1c(O)cc2c(c1C3=O)OC1OC2(C)C(O)C(N(C)C)C1O (configuration not stated)
inactive: [9] 103 % of control | [10] 104 % of control | [11] 104 % of control

CCOC(=O)Cn1cnc2cc(C)c(C)cc21
inactive: [1] 101 % of control | [3] 94 % of control | [2] 94 % of control | [4] 100 % of control | [5] 96 % of control

CCOC(=O)C(=O)CC1=CC=CC2=NC(=O)CCN12
inactive: [6] 93 % of control | [7] 93 % of control | [8] 102 % of control
